“And” between values parts separate entries of the source, which are not always exact repeats. Equal entries are not always repeated.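 Five compound concentrations were applied to cells in 96-well plates for 48 hours; endpoints were derived by simple linear interpolation of the resulting dose-response curve. GI50 marks 50% less growth. TGI: concentration producing complete growth inhibition.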
Legend:
Assay in all cases: DTP human tumour cell line panel, 48 h
SNB-75 CNS = system: SNB-75 CNS
SK-MEL-5 melanoma = system: SK-MEL-5 melanoma
A549 NSCLC = system: A549 NSCLC
K-562 leukemia = system: K-562 leukemia
HCT-116 colon = system: HCT-116 colon
MOLT-4 leukemia = system: MOLT-4 leukemia
ACHN renal = system: ACHN renal
EKVX NSCLC = system: EKVX NSCLC
HT29 colon = system: HT29 colon
HOP-92 NSCLC = system: HOP-92 NSCLC

SMILES	GI50 (SNB-75 CNS)	TGI (SNB-75 CNS)	GI50 (SK-MEL-5 melanoma)	TGI (SK-MEL-5 melanoma)	GI50 (A549 NSCLC)	TGI (A549 NSCLC)	GI50 (K-562 leukemia)	TGI (K-562 leukemia)	GI50 (HCT-116 colon)	TGI (HCT-116 colon)	GI50 (MOLT-4 leukemia)	TGI (MOLT-4 leukemia)	GI50 (ACHN renal)	TGI (ACHN renal)	GI50 (EKVX NSCLC)	TGI (EKVX NSCLC)	GI50 (HT29 colon)	TGI (HT29 colon)	GI50 (HOP-92 NSCLC)	TGI (HOP-92 NSCLC)
Nc1ccccc1NC(=O)c1ccc(CN2CCC/C(=C\c3cccc(Cl)c3)C2=O)cc1	0.284 µM	9.04 µM	0.0836 µM	1.08 µM	1.45 µM	75.7 µM	0.0399 µM	> 100 µM	0.0448 µM	> 100 µM	0.474 µM	> 100 µM	0.129 µM	6.32 µM	0.567 µM	> 100 µM	0.144 µM	1.89 µM	1.76 µM	16.2 µM
COc1ccc(C2=C(c3cc(OC)c(OC)c(OC)c3)C(=O)CC2)cc1	0.224 µM	> 100 µM	0.123 µM	6.24 µM	0.193 µM	> 100 µM	0.0449 µM	> 100 µM	0.156 µM	> 100 µM	0.405 µM	> 100 µM	1.8 µM	> 100 µM	0.699 µM	> 100 µM	0.0845 µM	15.3 µM	1.68 µM	54.1 µM
CN(C)CCCNc1nccc(-c2c(-c3ccc(F)cc3)nn3cc(C(F)(F)F)ccc23)n1	5.97 µM	> 16.9 µM	3.48 µM	6.75 µM	> 21.5 µM	> 25 µM	4.81 µM	14.2 µM	8.66 µM	> 25 µM	6.37 µM	17.3 µM	10.3 µM	> 25 µM	18.8 µM	> 25 µM	6.58 µM	> 23.9 µM	3.61 µM	> 25 µM
C[C@H]1CC[C@@H]2[C@@H](C)[C@H]3[C@H](C[C@H]4[C@@H]5CC=C6C[C@@H](O)CC[C@]6(C)[C@H]5C[C@H](O)[C@]34C)N2C1		> 100 µM		> 100 µM		> 100 µM		> 100 µM		> 100 µM		> 100 µM		> 100 µM		> 100 µM		> 100 µM		> 100 µM
CC1=C(/C=C/C(C)=C/C=C/C(C)=C/C(=O)Nc2ccc(O)cc2)C(C)(C)CCC1	1.81 µM	5.85 µM and 23.2 µM	2.1 µM	7.21 µM and 12 µM	2.43 µM	14.2 µM and 26.5 µM	1.38 µM	4.28 µM and > 40.4 µM	2.05 µM	4.6 µM and 15.7 µM	0.391 µM	2.11 µM and 5.53 µM	4.79 µM	16.3 µM and 17.7 µM	5.14 µM	20.7 µM and 25.2 µM		7.6 µM and 14.9 µM	1.77 µM	4.1 µM and 6.11 µM

— PubChem BioAssay (NCI)
